Measurements taken from patent US20020150915A1, “Promoter sequences” (priority 2000, published 2002).

Target: T1, CAR (Homo sapiens, UniProt Q14994)
T1 construct: amplifying full-length CAR by RT-PCR from total RNA prepared from C3A/HepG2 cells; expressed in transfected cells; host or cells: C3A cells (HepG2 derivative), transient transfection with pcDNA3-hCAR
T1 sequence (Q14994 1-348 isoform Q14994-2): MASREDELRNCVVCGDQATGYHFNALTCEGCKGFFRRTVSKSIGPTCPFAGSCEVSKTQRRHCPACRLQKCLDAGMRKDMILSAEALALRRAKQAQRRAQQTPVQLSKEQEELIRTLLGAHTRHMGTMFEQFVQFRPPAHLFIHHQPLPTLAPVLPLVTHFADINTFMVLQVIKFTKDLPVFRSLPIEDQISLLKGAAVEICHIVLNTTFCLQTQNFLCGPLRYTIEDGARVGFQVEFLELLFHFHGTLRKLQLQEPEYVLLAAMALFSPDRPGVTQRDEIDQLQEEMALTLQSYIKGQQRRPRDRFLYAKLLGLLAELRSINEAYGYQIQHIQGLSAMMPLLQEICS
Experiment: Cell based CYP3A7 promoter-luciferase reporter assay with CAR expression vector
Settings: C3A cells transfected with CYP3A7-9302 reporter and CAR expression vector; 10 μM compound, 48 hours; FIG. 3
Method: C3A cells were transfected with Cyp3A7 promoter with (Cyp3A7-9302) or without (CYP3A7-7478) the XREM and with CAR expression vector (CAR) or with empty (pcDNA3) expression vector. Cells were treated with vehicle (DMSO) or 10 μM of rifampicin or clotrimasol. Relative luciferase values represent luciferase activity compensated for the alkaline phosphatase reporter. The data are mean values +/−SD for six wells of a typical experiment
Six well plates were seeded with 0.5×10^6 C3A cells. The cells were maintained in MEM with phenol red containing L-glutamine and supplemented with nonessential amino acids. The medium also contained 10% foetal bovine serum (life Technologies). The cells were allowed to settle for 24 hours before the medium was replaced by medium containing 10% charcoal treated foetal bovine serum (Hyclone Laboratories). Each well was transfected with 0.1 μg RSV-AF, 2 μg of the indicated reporter and 0.5 μg of the expression vector for PAR-2, CAR or the empty expression vector, pcDNA3. FuGENE 6™ Transfection Reagent (Roche) was used according to recommendations from the manufacturer. After 24 hours the medium was replaced by fresh medium containing 10% charcoal treated foetal bovine serum. […] After induction for 48 hours the medium was analysed for the alkaline phosphatase activity and the luciferase activity was measured in the cell lysate as described (Bertilsson et al., 1998). […]

CAR dependent induction of CYP3A7 reporter: reduced
SMILES: Clc1ccccc1C(c1ccccc1)(c1ccccc1)n1ccnc1 [clotrimazole]
